The record followed here is US8524750B2, “(Pyrazol-3-yl)-1,3,4-thiadiazol-2-amine and (pyrazol-3-yl)-1,3,4-thiazol-2-amine compounds” (Glaxo Group Limited, priority 2009, dated 2013).

SMILES strings stand for the structures. In brackets after ≈: the same amount, converted by molar mass. Read-outs that look alike come from different tables or passages of the source.

In experiment [1] the target is T1, Mycobacterium tuberculosis InhA (Mycobacterium tuberculosis, UniProt P9WGR1).
T1 construct: made in house; host or cells: E. coli
T1 sequence (P9WGR1 whole entry, looked up): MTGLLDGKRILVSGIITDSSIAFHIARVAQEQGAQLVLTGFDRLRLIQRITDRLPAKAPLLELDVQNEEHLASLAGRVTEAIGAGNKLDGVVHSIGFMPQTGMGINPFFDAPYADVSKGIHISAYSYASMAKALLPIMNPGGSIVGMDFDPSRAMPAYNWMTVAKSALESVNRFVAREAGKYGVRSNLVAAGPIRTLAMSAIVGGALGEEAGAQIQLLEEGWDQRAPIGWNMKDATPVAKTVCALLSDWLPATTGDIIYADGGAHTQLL
Nature of the experiment: Mycobacterium tuberculosis InhA Inhibition Assay (Enzyme Assay). Format: biochemical. Particulars: 5 nM InhA, 50 μM DDCoA, 50 μM NADH, PIPES buffer pH 6.8, initial velocities of NADH consumption. As for the experimental part: Mycobacterium tuberculosis InhA Inhibition Assay (Enzyme Assay)
InhA is able to reduce 2-trans enoyl-CoA esters with concomitant oxidation of NADH to NAD^+. The assay format is based on the kinetic detection of NADH consumption.
Assay for InhA inhibition is carried out with mycobacterium recombinant protein expressed and purified form E. coli. Standard assay conditions for the determination of kinetic constants and inhibitors activity use 5 nM of InhA, 50 μM of Dodecenoyl-CoA synthesized and purified as described by Quernard et al (DDCoA) and 50 μM of NADH as substrates, and it is carried out in 30 mM PIPES buffer pH 6.8, containing 0.05% of BSA. […] Triclosan is used as positive control in every experiment. One μl of compounds is added to the wells containing 25 μl of the DDCoA+NADH mix, the reaction is started by adding 50 μl of the enzyme solution. Fluorescence from NADH is followed at room temperature during 20 minutes in a fluorescent plate reader (excitation at 340 nm; emission at 480 nm). IC50 values are determined using initial velocities of NADH consumption.
Quernard A, Sacchettini J C, Dessen A, et al. Enzymatic characterization of the target for isoniazid in Mycobacterium tuberculosis. Biochemistry 1995; 34:8235-41.

Experiment [2] deals with Mycobacterium tuberculosis H37Rv. Briefly: Mycobacterium tuberculosis H37Rv Inhibition Assay (Whole Cell Assay). It counts as cell-based. The settings on record: ATCC 25618 / H37Rv, H37Rv strain (ATCC25618), Middlebrook 7H9, six days at 37° C., resazurin fluorescence after 48 hours. In general terms: The colour change of resazurin is a common sign of viable cells or microbes.

As for `Cc1ccn(C(C)c2nnc(Nc3ccn(Cc4cccc(F)c4F)n3)s2)n1` (centres unmarked) [Example 15, N-{1-[(2,3-difluorophenyl)methyl]-1H-pyrazol-3-yl}-5-[1-(3-methyl-1H-pyrazol-1-yl)ethyl]-1,3,4-thiadiazol-2-amine], in experiment [1] (read-out: IC50 value), the IC50 was less than 125 nM. Besides, the MIC in experiment [2] fell in the range of 1 to 4 µM (≈ 0.401 to 1.61 µg/mL).
For `Cc1csc(C(C)c2nnc(Nc3ccn(Cc4cccc(F)c4F)n3)s2)n1` (centres unmarked) [Example 16, N-{1-[(2,3-difluorophenyl)methyl]-1H-pyrazol-3-yl}-5-[1-(4-methyl-1,3-thiazol-2-yl)ethyl]-1,3,4-thiadiazol-2-amine], in that order: less than 119 nM and 1 to 4 µM (≈ 0.418 to 1.67 µg/mL).
Regarding `Cc1cc(C)n(C(C)c2nnc(Nc3ccn(Cc4ccc(F)cc4Cl)n3)s2)n1` (centres unmarked) [Example 17, N-{1-[(2-chloro-4-fluorophenyl)methyl]-1H-pyrazol-3-yl}-5-[1-(3,5-dimethyl-1H-pyrazol-1-yl)ethyl]-1,3,4-thiadiazol-2-amine], in experiment [1] (IC50 value), the IC50 was in the range of 116 to 232 nM. This molecule registered an MIC in experiment [2] greater than 10 µM.
For `Cc1ccn(C(C)c2nnc(Nc3ccn(Cc4ccc(F)cc4Cl)n3)s2)n1` (centres unmarked) [Example 18, N-{1-[(2-chloro-4-fluorophenyl)methyl]-1H-pyrazol-3-yl}-5-[1-(3-methyl-1H-pyrazol-1-yl)ethyl]-1,3,4-thiadiazol-2-amine], in that order: 120 to 239 nM and greater than 10 µM.
In the case of `Cc1cc(C)n(C(C)c2nnc(Nc3cc(C)n(Cc4c(F)cccc4Cl)n3)s2)n1` (centres unmarked) [Example 19, N-{1-[(2-chloro-6-fluorophenyl)methyl]-5-methyl-1H-pyrazol-3-yl}-5-[1-(3,5-dimethyl-1H-pyrazol-1-yl)ethyl]-1,3,4-thiadiazol-2-amine], in experiment [1] (read-out: IC50 value), the IC50 was less than 112 nM. Moreover, in experiment [2], the MIC fell in the range of 1 to 4 µM (≈ 0.446 to 1.78 µg/mL).
With `Cc1cc(C)n(C(C)c2nnc(Nc3ccn(Cc4ccccc4C)n3)s2)n1` (centres unmarked) [Example 20, 5-[1-(3,5-dimethyl-1H-pyrazol-1-yl)ethyl]-N-{1-[(2-methylphenyl)methyl]-1H-pyrazol-3-yl}-1,3,4-thiadiazol-2-amine], the IC50 in experiment [1] (read-out: IC50 value) was less than 127 nM. For the same molecule, the MIC in experiment [2] was in the range of 1 to 4 µM (≈ 0.394 to 1.57 µg/mL).
On the same counts, the results for `Cc1cc(C)n(C(C)c2nnc(Nc3ccn(Cc4ccccc4)n3)s2)n1` (centres unmarked) [Example 21, 5-[1-(3,5-dimethyl-1H-pyrazol-1-yl)ethyl]-N-[1-(phenylmethyl)-1H-pyrazol-3-yl]-1,3,4-thiadiazol-2-amine] are less than 132 nM and 4 to 10 µM (≈ 1.52 to 3.79 µg/mL).
On the same counts, the results for `Cc1cc(C)n(C(C)c2nnc(Nc3ccn(Cc4c(Cl)ccc(C)c4F)n3)s2)n1` (centres unmarked) [Example 22, N-{1-[(6-chloro-2-fluoro-3-methylphenyl)methyl]-1H-pyrazol-3-yl}-5-[1-(3,5-dimethyl-1H-pyrazol-1-yl)ethyl]-1,3,4-thiadiazol-2-amine] are less than 112 nM and 1 to 4 µM (≈ 0.446 to 1.78 µg/mL).
For `Cc1cc(C)n(C(C)c2nnc(Nc3ccn(Cc4c(F)ccc(C)c4Cl)n3)s2)n1` (centres unmarked) [Example 23, N-{1-[(2-chloro-6-fluoro-3-methylphenyl)methyl]-1H-pyrazol-3-yl}-5-[1-(3,5-dimethyl-1H-pyrazol-1-yl)ethyl]-1,3,4-thiadiazol-2-amine], the IC50 in experiment [1] (read-out: IC50 value) is less than 112 nM. The molecule also displayed an MIC in experiment [2] of no more than 1 µM.
With `Cc1cc(C)n(C(C)c2nnc(Nc3ccn(Cc4cccc(C)c4F)n3)s2)n1` (centres unmarked) [Example 24, 5-[1-(3,5-dimethyl-1H-pyrazol-1-yl)ethyl]-N-{1-[(2-fluoro-3-methylphenyl)methyl]-1H-pyrazol-3-yl}-1,3,4-thiadiazol-2-amine], the IC50 in experiment [1] (read-out: IC50 value) is less than 122 nM. The molecule further gave an MIC in experiment [2] of no more than 1 µM.
For `Cc1csc(C(C)c2nnc(Nc3ccn(Cc4cccc(C)c4F)n3)s2)n1` (centres unmarked) [Example 25, N-{1-[(2-fluoro-3-methylphenyl)methyl]-1H-pyrazol-3-yl}-5-[1-(4-methyl-1,3-thiazol-2-yl)ethyl]-1,3,4-thiadiazol-2-amine], in that order: less than 121 nM and 1 to 4 µM (≈ 0.415 to 1.66 µg/mL).
Take `Cc1cc(C)n(C(C)c2nnc(Nc3ccn(Cc4cc(N)ccc4Cl)n3)s2)n1` (centres unmarked) [Example 26, N-{1-[(5-amino-2-chlorophenyl)methyl]-1H-pyrazol-3-yl}-5-[1-(3,5-dimethyl-1H-pyrazol-1-yl)ethyl]-1,3,4-thiadiazol-2-amine]: the IC50 in experiment [1] (read-out: IC50 value) is less than 117 nM. Also, in experiment [2], the MIC is greater than 10 µM.
For `Cc1cc(C)n(C(C)c2nnc(Nc3ccn(Cc4cccc(N)c4C)n3)s2)n1` (centres unmarked) [Example 27, N-{1-[(3-amino-2-methylphenyl)methyl]-1H-pyrazol-3-yl}-5-[1-(3,5-dimethyl-1H-pyrazol-1-yl)ethyl]-1,3,4-thiadiazol-2-amine], in that order: less than 122 nM and 4 to 10 µM (≈ 1.63 to 4.09 µg/mL).
On the same counts, the results for `Cc1csc(C(C)c2nnc(Nc3ccn(Cc4c(F)cccc4Cl)n3)s2)n1` (centres unmarked) [Example 29, N-{1-[(2-chloro-6-fluorophenyl)methyl]-1H-pyrazol-3-yl}-5-[1-(4-methyl-1,3-thiazol-2-yl)ethyl]-1,3,4-thiadiazol-2-amine] are less than 115 nM and 1 to 4 µM (≈ 0.435 to 1.74 µg/mL).
On the same counts, the results for `CC(c1nc(C(F)(F)F)cs1)c1nnc(Nc2ccn(Cc3c(F)cccc3Cl)n2)s1` (centres unmarked) [Example 31, N-{1-[(2-chloro-6-fluorophenyl)methyl]-1H-pyrazol-3-yl}-5-{1-[4-(trifluoromethyl)-1,3-thiazol-2-yl]ethyl}-1,3,4-thiadiazol-2-amine] are less than 102 nM and greater than 10 µM.
On to `Cc1csc(Cc2nnc(Nc3ccn(Cc4c(F)cccc4Cl)n3)s2)n1` [Example 32, N-{1-[(2-chloro-6-fluorophenyl)methyl]-1H-pyrazol-3-yl}-5-[(4-methyl-1,3-thiazol-2-yl)methyl]-1,3,4-thiadiazol-2-amine], for which, in experiment [1] (read-out: IC50 value), the IC50 was less than 119 nM. In experiment [2], this molecule returned an MIC of 4 to 10 µM (≈ 1.68 to 4.21 µg/mL).
For `Cc1csc(C(C)c2nnc(Nc3ccn(Cc4cccc(Cl)c4F)n3)s2)n1` (centres unmarked) [Example 33, N-{1-[(3-chloro-2-fluorophenyl)methyl]-1H-pyrazol-3-yl}-5-[1-(4-methyl-1,3-thiazol-2-yl)ethyl]-1,3,4-thiadiazol-2-amine], in that order: less than 115 nM and 1 to 4 µM (≈ 0.435 to 1.74 µg/mL).
`Cc1cc(C)n(C(C)c2nnc(Nc3ccn(Cc4ccc(Cl)cc4)n3)s2)n1` (centres unmarked) [Example 34, N-{1-[(4-chlorophenyl)methyl]-1H-pyrazol-3-yl}-5-[1-(3,5-dimethyl-1H-pyrazol-1-yl)ethyl]-1,3,4-thiadiazol-2-amine]: in experiment [1] (IC50 value), the concentration for half-maximal inhibition (IC50) fell in the range of 121 to 242 nM. The MIC in experiment [2] fell in the range of 4 to 10 µM (≈ 1.66 to 4.14 µg/mL).
On to `Cc1cc(C)n(C(C)c2nnc(Nc3ccn(Cc4ccc(C(F)(F)F)cc4)n3)s2)n1` (centres unmarked) [Example 35, 5-[1-(3,5-dimethyl-1H-pyrazol-1-yl)ethyl]-N-(1-{[4-(trifluoromethyl)phenyl]methyl}-1H-pyrazol-3-yl)-1,3,4-thiadiazol-2-amine], for which, in experiment [1] (IC50 value), the IC50 lay within 223 to 1120 nM. The molecule also came in with a minimal inhibitory concentration (MIC) in experiment [2] greater than 10 µM.
Regarding `Cc1cc(C)n(C(C)c2nnc(Nc3ccn(Cc4cc(F)ccc4Cl)n3)s2)n1` (centres unmarked) [Example 36, N-{1-[(2-chloro-5-fluorophenyl)methyl]-1H-pyrazol-3-yl}-5-[1-(3,5-dimethyl-1H-pyrazol-1-yl)ethyl]-1,3,4-thiadiazol-2-amine], the IC50 in experiment [1] (read-out: IC50 value) was less than 116 nM. Moreover, the MIC in experiment [2] lay in the range of 4 to 10 µM (≈ 1.73 to 4.32 µg/mL).
Consider `Cc1cc(C)n(Cc2cnc(Nc3ccn(Cc4c(F)cccc4Cl)n3)s2)n1` [Example 37, N-{1-[(2-chloro-6-fluorophenyl)methyl]-1H-pyrazol-3-yl}-5-[(3,5-dimethyl-1H-pyrazol-1-yl)methyl]-1,3-thiazol-2-amine], for which, in experiment [1] (read-out: IC50 value), the IC50 is less than 120 nM. Besides, in experiment [2], the MIC was 4 to 10 µM (≈ 1.67 to 4.17 µg/mL).
On the same counts, the results for `Cc1ccn(Cc2nnc(Nc3ccn(Cc4c(F)cccc4Cl)n3)s2)n1` [Example 39, N-{1-[(2-chloro-6-fluorophenyl)methyl]-1H-pyrazol-3-yl}-5-[(3-methyl-1H-pyrazol-1-yl)methyl]-1,3,4-thiadiazol-2-amine] are less than 124 nM and 1 to 4 µM (≈ 0.404 to 1.62 µg/mL).
On to `Cc1cc([N+](=O)[O-])nn1C(C)c1nnc(Nc2ccn(Cc3ccccc3Cl)n2)s1` (centres unmarked) [Example 40, N-{1-[(2-chlorophenyl)methyl]-1H-pyrazol-3-yl}-5-[1-(5-methyl-3-nitro-1H-pyrazol-1-yl)ethyl]-1,3,4-thiadiazol-2-amine], for which the IC50 in experiment [1] (read-out: IC50 value) was less than 112 nM. Besides, the MIC in experiment [2] fell in the range of 1 to 4 µM (≈ 0.445 to 1.78 µg/mL).
`Cc1cc(C(F)F)nn1C(C)c1nnc(Nc2ccn(Cc3ccccc3Cl)n2)s1` (centres unmarked) [Example 41, N-{1-[(2-chlorophenyl)methyl]-1H-pyrazol-3-yl}-5-{1-[3-(difluoromethyl)-5-methyl-1H-pyrazol-1-yl]ethyl}-1,3,4-thiadiazol-2-amine]: in experiment [1] (read-out: IC50 value), the IC50 was less than 111 nM. This molecule also returned an MIC in experiment [2] of 4 to 10 µM (≈ 1.8 to 4.5 µg/mL).
Consider `Cc1ccn(C(C)c2nnc(Nc3ccn(Cc4ccccc4Cl)n3)s2)n1` (centres unmarked) [Example 42, N-{1-[(2-chlorophenyl)methyl]-1H-pyrazol-3-yl}-5-[1-(3-methyl-1H-pyrazol-1-yl)ethyl]-1,3,4-thiadiazol-2-amine], for which the IC50 in experiment [1] (read-out: IC50 value) is less than 125 nM. Besides, in experiment [2], the MIC is 1 to 4 µM (≈ 0.4 to 1.6 µg/mL).

A word on the IC50: it is the concentration that inhibits the measured activity by half. The MIC is the smallest concentration in the dilution series that meets the test's criterion for growth inhibition. Read a low MIC as a more susceptible organism.
